Laboratory results taken from publication PMC10910856 (RSC Advances, 2024).

These molecules were tested on α-glucosidase (assay: Alpha-glucosidase inhibitory assay). Conditions: ratio of IC50 values.
Type: biochemical, Bovine
For `CC1=NN(c2ccccc2)C(=O)C1=NNc1ccc(S(N)(=O)=O)cc1` [Compound 3a, 4-(2-(3-Methyl-5-oxo-1-phenyl-1,5-dihydro-4H-pyrazol-4-ylidene) hydrazinyl)benzenesulfonamide], the “times more active towards α-glucosidase enzyme than α-amylase enzyme” value was 21 times.

Same assay, conditions: read-out: α-Glucosidase IC50 (μM ± SD); mean of three replicates
In the case of `CC1=NCCNC(=O)C1=NNc1ccc(S(N)(=O)=O)cc1` [Compound 8, 4-(2-(5-Methyl-7-oxo-1,2,3,7-tetrahydro-6H-1,4-diazepin-6-ylidene)hydrazinyl)benzenesulfonamide], the IC50 is reported as 110 ± 6.7 µM. For `CC1=NN(c2ccc(F)cc2)C(=O)C1=NNc1ccc(S(N)(=O)=O)cc1` [Compound 3e, 4-(2-(1-(4-Fluorophenyl)-3-methyl-5-oxo-1,5-dihydro-4H-pyrazol-4-ylidene)hydrazinyl)benzenesulfonamide], the IC50 was 44.8 ± 3.4 µM. Molecule `CC1=NN(c2ccc(C)cc2)C(=O)C1=NNc1ccc(S(N)(=O)=O)cc1` [Compound 3g, 4-(2-(3-Methyl-5-oxo-1-(p-tolyl)-1,5-dihydro-4H-pyrazol-4-ylidene)-hydrazinyl)benzenesulfonamide] has an IC50 of 99.1 ± 6.8 µM. `CC1=NN(c2cccc(C)c2)C(=O)C1=NNc1ccc(S(N)(=O)=O)cc1` [Compound 3f, 4-(2-(3-Methyl-5-oxo-1-(m-tolyl)-1,5-dihydro-4H-pyrazol-4-ylidene)-hydrazinyl)benzenesulfonamide] was tested, and the IC50 was 55.4 ± 4.8 µM. `CC1=NN(c2ccc(Cl)cc2)C(=O)C1=NNc1ccc(S(N)(=O)=O)cc1` [Compound 3b, 4-(2-(1-(4-Chlorophenyl)-3-methyl-5-oxo-1,5-dihydro-4H-pyrazol-4-ylidene)hydrazinyl)benzenesulfonamide] showed an IC50 of 25.1 ± 0.7 µM. Work on `CC1=NNC(=O)C1=NNc1ccc(S(N)(=O)=O)cc1` [Compound 4, 4-(2-(3-Methyl-5-oxo-1,5-dihydro-4H-pyrazol-4-ylidene)hydrazinyl)-benzenesulfonamide] yielded an IC50 of 76 ± 6.1 µM. `CC1=NN(c2ccccc2)C(=O)C1=NNc1ccc(S(N)(=O)=O)cc1` [Compound 3a, 4-(2-(3-Methyl-5-oxo-1-phenyl-1,5-dihydro-4H-pyrazol-4-ylidene) hydrazinyl)benzenesulfonamide] showed an IC50 of 19.4 ± 2.7 µM. `CC1=NNC(=S)NC(=O)C1/N=N/c1ccc(S(N)(=O)=O)cc1` (stereo not shown) [Compound 7, (E)-4-((7-methyl-5-oxo-3-thioxo-3,4,5,6-tetrahydro-2H-1,2,4-triazepin-6-yl)diazenyl)benzenesulfonamide] gave an IC50 of 85.4 ± 2.3 µM. `CC1=NN(c2cc(Cl)ccc2Cl)C(=O)C1=NNc1ccc(S(N)(=O)=O)cc1` [Compound 3i, 4-(2-(1-(2,5-Dichlorophenyl)-3-methyl-5-oxo-1,5-dihydro-4H-pyrazol-4-ylidene)hydrazinyl)benzenesulfonamide] gave an IC50 of 50.2 ± 4.8 µM. Molecule `CC1=NN(c2ccccn2)C(=O)C1=NNc1ccc(S(N)(=O)=O)cc1` [Compound 3j, 4-(2-(3-Methyl-5-oxo-1-(pyridin-2-yl)-1,5-dihydro-4H-pyrazol-4-ylidene)hydrazinyl)benzenesulfonamide] has an IC50 of 82.7 ± 7.4 µM. Molecule `CC1=NOC(=O)C1=NNc1ccc(S(N)(=O)=O)cc1` [Compound 5, 4-(2-(3-Methyl-5-oxoisoxazol-4(5H)-ylidene)hydrazinyl)benzene-sulfonamide] has an IC50 of 78.7 ± 5.9 µM. Work on `CC1=NN(c2cccc([N+](=O)[O-])c2)C(=O)C1=NNc1ccc(S(N)(=O)=O)cc1` [Compound 3h, 4-(2-(3-Methyl-1-(3-nitrophenyl)-5-oxo-1,5-dihydro-4H-pyrazol-4-ylidene)hydrazinyl)benzenesulfonamide] yielded an IC50 of 25.6 ± 2.1 µM.
